Common to all, as to test: KINOMEscan kinase binding assay (Eurofins/DiscoveRx), % Ctrl
Experiment [1] addresses T1, kinases (Homo sapiens, UniProt P35916).
T1 construct: purchased Eurofins/DiscoveRx; host or cells: E. coli BL21-derived host (T7 phage display) for most kinases; HEK-293 for the rest
As to conditions: 1 μM; FLT4. On the procedure:
(§1) Kinase binding assays were performed at Eurofins/DiscoveRx using the general KINOMEscan Protocol (Fabian, M. A. et al., “A small molecule-kinase interaction map for clinical kinase inhibitors,” Nat. Biotechnol. 2005, 23(3):329-36). For most assays, kinase-tagged T7 phage strains were prepared in an E. coli host derived from the BL21 strain. E. coli were grown to log-phase and infected with T7 phage and incubated with shaking at 32° C. until lysis. The lysates were centrifuged and filtered to remove cell debris. The remaining kinases were produced in HEK-293 cells and subsequently tagged with DNA for qPCR detection. Streptavidin-coated magnetic beads were treated with biotinylated small molecule ligands for 30 minutes at room temperature to generate affinity resins for kinase assays. The liganded beads were blocked with excess biotin and washed with blocking buffer (SeaBlock (Pierce), 1% BSA, 0.05% Tween 20, 1 mM DTT) to remove unbound ligand and to reduce nonspecific binding. Binding reactions were assembled by combining kinases, liganded affinity beads, and test compounds in 1×binding buffer (20% SeaBlock, 0.17×PBS, 0.05% Tween 20, 6 mM DTT). All reactions were performed in polystyrene 96-well plates in a final volume of 0.135 mL. The assay plates were incubated at room temperature with shaking for 1 hour and the affinity beads were washed with washbuffer (1×PBS, 0.05% Tween 20). The beads were then re-suspended in elution buffer (1× PBS, 0.05% Tween 20, 0.5 μM non-biotinylated affinity ligand) and incubated at room temperature with shaking for 30 minutes. The kinase concentration in the eluates was measured by qPCR. Results for compounds tested in this assay at a given concentration are reported as “% Ctrl”, where lower numbers indicate stronger binding in the matrix.
(§2) (test compound signal-positive control signal)/(negative control signal-positive control signal) X100

Experiment [2] addresses T2, kinases (Homo sapiens, UniProt P00519, M351T).
T2 construct: purchased Eurofins/DiscoveRx; host or cells: E. coli BL21-derived host (T7 phage display) for most kinases; HEK-293 for the rest
As to conditions: 1 μM; ABL1(M351T)-phosphorylated. On the procedure: as §1, §2

Experiment [3] deals with T3, kinases (Homo sapiens, UniProt P10721, L576P).
T3 construct: purchased Eurofins/DiscoveRx; host or cells: E. coli BL21-derived host (T7 phage display) for most kinases; HEK-293 for the rest
T3 sequence (P10721 26-976 L576P): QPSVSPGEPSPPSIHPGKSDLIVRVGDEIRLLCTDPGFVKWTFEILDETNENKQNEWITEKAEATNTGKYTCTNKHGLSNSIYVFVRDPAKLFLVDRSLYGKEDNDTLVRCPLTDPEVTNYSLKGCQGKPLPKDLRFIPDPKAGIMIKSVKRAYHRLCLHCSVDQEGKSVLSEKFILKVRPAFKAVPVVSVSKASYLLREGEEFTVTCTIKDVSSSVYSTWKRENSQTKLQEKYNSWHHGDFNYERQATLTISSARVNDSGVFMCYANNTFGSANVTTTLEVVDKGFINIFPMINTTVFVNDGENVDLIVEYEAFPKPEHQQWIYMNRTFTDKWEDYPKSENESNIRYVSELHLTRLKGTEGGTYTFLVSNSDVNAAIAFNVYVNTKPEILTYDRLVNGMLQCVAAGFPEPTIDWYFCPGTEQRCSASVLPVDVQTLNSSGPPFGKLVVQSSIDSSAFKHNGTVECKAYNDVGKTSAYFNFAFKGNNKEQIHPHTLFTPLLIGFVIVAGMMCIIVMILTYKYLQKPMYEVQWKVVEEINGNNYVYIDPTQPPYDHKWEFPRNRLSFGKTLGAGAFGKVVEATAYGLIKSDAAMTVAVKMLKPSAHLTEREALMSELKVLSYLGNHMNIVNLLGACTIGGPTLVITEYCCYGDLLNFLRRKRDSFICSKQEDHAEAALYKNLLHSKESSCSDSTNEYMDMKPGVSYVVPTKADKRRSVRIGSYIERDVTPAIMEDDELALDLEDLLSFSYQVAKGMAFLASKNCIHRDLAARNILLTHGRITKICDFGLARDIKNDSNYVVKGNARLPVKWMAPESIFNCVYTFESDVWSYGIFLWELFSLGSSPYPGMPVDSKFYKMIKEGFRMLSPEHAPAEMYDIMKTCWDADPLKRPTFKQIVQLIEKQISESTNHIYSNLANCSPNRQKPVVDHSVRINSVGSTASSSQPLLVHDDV
Conditions: 1 μM; KIT(L576P). On the procedure: as §1, §2

The target of experiment [4] is T4, kinases (Homo sapiens, UniProt P00533, L858R/T790M).
T4 construct: purchased Eurofins/DiscoveRx; host or cells: E. coli BL21-derived host (T7 phage display) for most kinases; HEK-293 for the rest
As to conditions: 1 μM; EGFR(L858R, T790M). On the procedure:
as §1, §2

The target in experiment [5] is T5, kinases (Homo sapiens, UniProt P17948).
T5 construct: purchased Eurofins/DiscoveRx; host or cells: E. coli BL21-derived host (T7 phage display) for most kinases; HEK-293 for the rest
T5 sequence (P17948 27-1338): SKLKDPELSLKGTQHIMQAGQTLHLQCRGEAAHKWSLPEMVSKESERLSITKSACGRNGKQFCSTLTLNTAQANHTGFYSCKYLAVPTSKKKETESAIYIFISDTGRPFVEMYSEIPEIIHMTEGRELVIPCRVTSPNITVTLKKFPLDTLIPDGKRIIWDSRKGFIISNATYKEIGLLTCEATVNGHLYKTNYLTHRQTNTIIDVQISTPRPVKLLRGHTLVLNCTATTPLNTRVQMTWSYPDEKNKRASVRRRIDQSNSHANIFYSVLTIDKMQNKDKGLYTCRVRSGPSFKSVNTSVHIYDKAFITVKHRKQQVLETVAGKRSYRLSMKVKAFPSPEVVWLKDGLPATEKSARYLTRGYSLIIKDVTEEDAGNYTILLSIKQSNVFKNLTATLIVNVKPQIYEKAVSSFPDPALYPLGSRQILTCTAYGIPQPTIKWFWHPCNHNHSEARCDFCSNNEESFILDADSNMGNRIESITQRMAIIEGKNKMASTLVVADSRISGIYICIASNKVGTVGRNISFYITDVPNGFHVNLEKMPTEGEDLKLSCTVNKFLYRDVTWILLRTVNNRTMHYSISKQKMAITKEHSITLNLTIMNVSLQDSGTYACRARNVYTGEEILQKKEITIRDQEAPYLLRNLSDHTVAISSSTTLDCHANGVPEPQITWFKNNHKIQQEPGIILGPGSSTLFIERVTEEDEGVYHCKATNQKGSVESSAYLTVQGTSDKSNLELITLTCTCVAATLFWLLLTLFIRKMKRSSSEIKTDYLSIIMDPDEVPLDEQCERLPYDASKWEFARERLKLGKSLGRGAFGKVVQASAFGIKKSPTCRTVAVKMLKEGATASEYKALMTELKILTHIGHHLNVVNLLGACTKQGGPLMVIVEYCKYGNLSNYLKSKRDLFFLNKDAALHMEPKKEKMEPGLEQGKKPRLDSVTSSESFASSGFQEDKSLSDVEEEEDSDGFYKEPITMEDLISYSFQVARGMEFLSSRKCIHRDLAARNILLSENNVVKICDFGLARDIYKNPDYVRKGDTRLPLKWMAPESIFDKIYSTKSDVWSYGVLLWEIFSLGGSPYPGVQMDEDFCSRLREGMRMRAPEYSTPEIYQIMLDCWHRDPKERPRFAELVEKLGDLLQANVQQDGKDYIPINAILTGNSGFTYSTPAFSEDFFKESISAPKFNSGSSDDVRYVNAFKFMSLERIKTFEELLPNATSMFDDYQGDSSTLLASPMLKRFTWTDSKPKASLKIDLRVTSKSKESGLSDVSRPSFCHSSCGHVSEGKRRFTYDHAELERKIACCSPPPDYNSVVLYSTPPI
Conditions: 1 μM; FLT1. Here is the method: as §1, §2

Experiment [6] deals with T6, kinases (Homo sapiens, UniProt P36888, D835Y).
T6 construct: purchased Eurofins/DiscoveRx; host or cells: E. coli BL21-derived host (T7 phage display) for most kinases; HEK-293 for the rest
T6 sequence (P36888 27-993 D835Y): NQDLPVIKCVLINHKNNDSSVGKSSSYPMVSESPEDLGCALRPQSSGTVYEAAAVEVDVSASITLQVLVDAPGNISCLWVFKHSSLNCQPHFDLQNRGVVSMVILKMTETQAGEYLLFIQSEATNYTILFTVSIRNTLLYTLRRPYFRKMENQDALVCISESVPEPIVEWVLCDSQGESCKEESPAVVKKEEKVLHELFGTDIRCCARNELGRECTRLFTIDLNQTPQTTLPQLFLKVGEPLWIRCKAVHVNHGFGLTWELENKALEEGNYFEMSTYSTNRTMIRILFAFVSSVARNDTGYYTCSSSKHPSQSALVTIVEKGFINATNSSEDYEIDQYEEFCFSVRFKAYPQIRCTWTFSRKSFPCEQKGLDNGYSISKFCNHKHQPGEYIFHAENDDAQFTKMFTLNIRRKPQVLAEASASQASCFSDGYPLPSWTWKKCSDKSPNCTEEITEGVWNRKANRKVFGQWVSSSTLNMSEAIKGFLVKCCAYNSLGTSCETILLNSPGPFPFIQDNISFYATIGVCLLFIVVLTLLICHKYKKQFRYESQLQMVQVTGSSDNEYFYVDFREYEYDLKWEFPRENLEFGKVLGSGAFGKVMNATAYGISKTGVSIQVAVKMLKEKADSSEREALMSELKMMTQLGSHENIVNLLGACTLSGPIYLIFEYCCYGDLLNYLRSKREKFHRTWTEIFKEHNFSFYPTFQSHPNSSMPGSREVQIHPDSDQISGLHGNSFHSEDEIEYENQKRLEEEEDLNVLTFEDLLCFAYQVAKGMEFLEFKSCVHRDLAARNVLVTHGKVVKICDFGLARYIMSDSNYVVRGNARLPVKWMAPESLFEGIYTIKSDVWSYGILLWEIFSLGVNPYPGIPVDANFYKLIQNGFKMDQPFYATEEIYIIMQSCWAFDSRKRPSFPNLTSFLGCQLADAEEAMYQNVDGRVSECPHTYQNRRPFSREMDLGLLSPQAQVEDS
As to conditions: 1 μM; FLT3(D835Y). On the procedure: as §1, §2

Experiment [7] addresses T7, kinases (Homo sapiens, UniProt P07949, V804M).
T7 construct: purchased Eurofins/DiscoveRx; host or cells: E. coli BL21-derived host (T7 phage display) for most kinases; HEK-293 for the rest
As to conditions: 1 μM; RET(V804M). Here is the method: as §1, §2

In experiment [8] the target is T8, kinases (Homo sapiens, UniProt P10721, T670I/V559D).
T8 construct: purchased Eurofins/DiscoveRx; host or cells: E. coli BL21-derived host (T7 phage display) for most kinases; HEK-293 for the rest
T8 sequence (P10721 26-976 V559D/T670I): as the sequence (P10721 26-976 L576P) above, with V534D, P551L, T645I counted along it
As to conditions: 1 μM; KIT(V559D, T670I). Here is the method:
as §1, §2

Molecules are shown by their SMILES.

T7 sequence (P07949 29-1114 V804M): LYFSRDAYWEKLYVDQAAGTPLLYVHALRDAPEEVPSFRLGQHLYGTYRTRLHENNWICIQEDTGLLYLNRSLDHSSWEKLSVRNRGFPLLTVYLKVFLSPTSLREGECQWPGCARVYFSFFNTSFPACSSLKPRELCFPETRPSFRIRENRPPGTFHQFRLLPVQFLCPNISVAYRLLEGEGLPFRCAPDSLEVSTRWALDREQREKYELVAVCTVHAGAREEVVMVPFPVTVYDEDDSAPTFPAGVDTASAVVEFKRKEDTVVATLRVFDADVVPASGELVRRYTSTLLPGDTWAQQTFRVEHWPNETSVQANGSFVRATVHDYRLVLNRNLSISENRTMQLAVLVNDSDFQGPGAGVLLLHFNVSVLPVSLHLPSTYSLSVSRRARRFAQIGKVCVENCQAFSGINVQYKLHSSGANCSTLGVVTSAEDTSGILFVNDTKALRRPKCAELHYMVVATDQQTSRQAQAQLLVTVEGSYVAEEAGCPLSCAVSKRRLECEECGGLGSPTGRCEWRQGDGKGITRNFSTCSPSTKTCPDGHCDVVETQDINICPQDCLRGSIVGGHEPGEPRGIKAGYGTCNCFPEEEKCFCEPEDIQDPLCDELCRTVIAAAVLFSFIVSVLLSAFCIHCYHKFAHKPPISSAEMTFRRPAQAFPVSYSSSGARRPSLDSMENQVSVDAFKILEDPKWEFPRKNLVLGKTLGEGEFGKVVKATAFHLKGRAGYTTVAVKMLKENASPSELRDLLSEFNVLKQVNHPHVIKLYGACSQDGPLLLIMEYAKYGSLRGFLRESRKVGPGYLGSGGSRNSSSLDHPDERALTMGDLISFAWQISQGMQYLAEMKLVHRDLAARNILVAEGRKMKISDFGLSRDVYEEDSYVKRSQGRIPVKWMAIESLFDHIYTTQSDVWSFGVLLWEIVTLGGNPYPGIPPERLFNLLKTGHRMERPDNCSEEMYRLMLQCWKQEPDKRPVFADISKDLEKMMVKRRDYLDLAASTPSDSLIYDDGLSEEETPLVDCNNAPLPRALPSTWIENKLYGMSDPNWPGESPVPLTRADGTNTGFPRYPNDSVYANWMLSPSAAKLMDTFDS
T1 sequence (P35916 25-1363): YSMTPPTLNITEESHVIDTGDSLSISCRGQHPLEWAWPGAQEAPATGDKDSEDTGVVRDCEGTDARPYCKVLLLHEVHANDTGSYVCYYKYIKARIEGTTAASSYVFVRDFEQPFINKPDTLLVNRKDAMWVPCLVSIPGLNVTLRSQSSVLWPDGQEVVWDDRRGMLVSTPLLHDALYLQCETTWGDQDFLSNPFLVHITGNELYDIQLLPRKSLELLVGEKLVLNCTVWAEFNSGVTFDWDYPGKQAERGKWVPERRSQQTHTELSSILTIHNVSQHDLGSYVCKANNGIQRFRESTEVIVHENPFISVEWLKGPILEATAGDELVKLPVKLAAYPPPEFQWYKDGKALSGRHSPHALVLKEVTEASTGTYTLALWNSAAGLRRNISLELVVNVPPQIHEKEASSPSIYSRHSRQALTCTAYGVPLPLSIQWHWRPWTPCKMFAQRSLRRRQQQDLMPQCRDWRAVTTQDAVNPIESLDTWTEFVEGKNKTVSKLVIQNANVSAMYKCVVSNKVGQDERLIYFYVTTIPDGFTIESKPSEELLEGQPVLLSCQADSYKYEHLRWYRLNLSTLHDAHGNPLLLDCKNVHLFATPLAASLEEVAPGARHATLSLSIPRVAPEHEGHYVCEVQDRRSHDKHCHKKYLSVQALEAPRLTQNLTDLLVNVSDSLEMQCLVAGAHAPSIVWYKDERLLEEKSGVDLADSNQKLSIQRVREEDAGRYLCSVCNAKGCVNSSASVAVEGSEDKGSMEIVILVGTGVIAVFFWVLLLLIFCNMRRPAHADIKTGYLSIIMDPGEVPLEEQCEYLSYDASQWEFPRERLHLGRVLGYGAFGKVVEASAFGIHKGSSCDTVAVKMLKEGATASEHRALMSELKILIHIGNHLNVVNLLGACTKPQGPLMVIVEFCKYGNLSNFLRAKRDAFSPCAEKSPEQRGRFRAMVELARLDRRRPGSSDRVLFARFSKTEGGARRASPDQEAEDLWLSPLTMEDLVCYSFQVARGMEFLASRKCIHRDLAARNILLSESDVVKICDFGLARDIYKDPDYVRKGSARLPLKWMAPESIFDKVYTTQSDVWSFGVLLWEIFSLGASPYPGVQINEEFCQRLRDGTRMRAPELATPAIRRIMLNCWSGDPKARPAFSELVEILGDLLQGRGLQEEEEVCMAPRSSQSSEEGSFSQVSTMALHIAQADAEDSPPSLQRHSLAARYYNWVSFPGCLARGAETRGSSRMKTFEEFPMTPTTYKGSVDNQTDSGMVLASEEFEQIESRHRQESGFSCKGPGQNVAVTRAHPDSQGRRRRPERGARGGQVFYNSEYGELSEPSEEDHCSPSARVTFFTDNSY

On to `Cc1cc2c([nH]1)/C=C1\C(=O)Nc3cc(Cl)c(cc31)OCCOCCN(C)C2=O` [Ex. 131, [16a(17)Z]-19-chloro-2,5-dimethyl-6,7,9,10-tetrahydro-1H-12,14-(ethanediylidene)dipyrrolo[3,2-i:3′,4′-l][1,4,7]dioxazacyclopentadecine-4,16(5H,15H)-dione], for which the “% Ctrl, FLT4” value at kinases [1] is reported as 0 % Ctrl. On kinases [2], the “% Ctrl, ABL1(M351T)-phosphorylated” value came to 0.2 % Ctrl. Besides, the “% Ctrl, KIT(L576P)” value on kinases [3] was determined as 0 % Ctrl. Besides, on kinases [4], the “% Ctrl, EGFR(L858R, T790M)” value is 35 % Ctrl. Further, the “% Ctrl, FLT1” value on kinases [5] is 4 % Ctrl. Besides, at kinases [6], the “% Ctrl, FLT3(D835Y)” value was determined as 2.3 % Ctrl. Besides, on kinases [7], the “% Ctrl, RET(V804M)” value came to 0.15 % Ctrl. On kinases [8], the “% Ctrl, KIT(V559D, T670I)” value stood at 0.05 % Ctrl.

With `Cc1cc2c([nH]1)/C=C1\C(=O)Nc3cc(Cl)c(cc31)OCCO[C@@H](C(=O)NC1CNC1)CN(C)C2=O` [Ex. 133, [7R,16a(17)Z]-N-(azetidin-3-yl)-19-chloro-2,5-dimethyl-4,16-dioxo-4,5,6,7,9,10,15,16-octahydro-1H-12,14-(ethanediylidene)dipyrrolo[3,2-i:3′,4′-l][1,4,7]dioxazacyclopentadecine-7-carboxamide], the “% Ctrl, FLT4” value at kinases [1] is listed as 98 % Ctrl. For the same molecule, at kinases [2], the “% Ctrl, ABL1(M351T)-phosphorylated” value was 58 % Ctrl. Besides, the “% Ctrl, KIT(L576P)” value at kinases [3] turned out to be 8.7 % Ctrl. The “% Ctrl, EGFR(L858R, T790M)” value on kinases [4] is 95 % Ctrl. Besides, the “% Ctrl, FLT1” value at kinases [5] came out at 89 % Ctrl. Further, the “% Ctrl, FLT3(D835Y)” value on kinases [6] was 3.1 % Ctrl. For the same molecule, the “% Ctrl, RET(V804M)” value at kinases [7] was 69 % Ctrl. Further, at kinases [8], the “% Ctrl, KIT(V559D, T670I)” value was found to be 7.4 % Ctrl.

On to `Cc1cc2c([nH]1)/C=C1\C(=O)Nc3cc(Cl)c(cc31)OCCO[C@@H](C(=O)NC1CCNCC1)CN(C)C2=O` [Ex. 134, [7R,16a(17)Z]-19-chloro-2,5-dimethyl-4,16-dioxo-N-(piperidin-4-yl)-4,5,6,7,9,10,15,16-octahydro-1H-12,14-(ethaneidylidene)dipyrrolo[3,2-i:3′,4′-l][1,4,7]dioxazacyclopentadecine-7-carboxamide], for which, on kinases [1], the “% Ctrl, FLT4” value is given as 90 % Ctrl. For the same molecule, the “% Ctrl, ABL1(M351T)-phosphorylated” value on kinases [2] was determined as 25 % Ctrl. Also, at kinases [3], the “% Ctrl, KIT(L576P)” value is listed as 5.1 % Ctrl. The “% Ctrl, EGFR(L858R, T790M)” value on kinases [4] is recorded as 92 % Ctrl. Moreover, the “% Ctrl, FLT1” value at kinases [5] is on record as 97 % Ctrl. Moreover, the “% Ctrl, FLT3(D835Y)” value on kinases [6] is given as 10 % Ctrl. Besides, at kinases [7], the “% Ctrl, RET(V804M)” value is given as 81 % Ctrl. Also, on kinases [8], the “% Ctrl, KIT(V559D, T670I)” value stood at 3.9 % Ctrl.

In the case of `CNC(=O)[C@H]1CN(C)C(=O)c2cc(C)[nH]c2/C=C2\C(=O)Nc3cc(Cl)c(cc32)OCCO1` [Ex. 135, [7R,16a(17)Z]-19-chloro-N,2,5-trimethyl-4,16-dioxo-4,5,6,7,9,10,15,16-octahydro-1H-12,14-(ethanediylidene)dipyrrolo[3,2-i:3′,4′-l][1,4,7]dioxazacyclopentadecine-7-carboxamide], the “% Ctrl, FLT4” value on kinases [1] stood at 100 % Ctrl. Also, the “% Ctrl, ABL1(M351T)-phosphorylated” value at kinases [2] is reported as 48 % Ctrl. Moreover, on kinases [3], the “% Ctrl, KIT(L576P)” value stood at 8.5 % Ctrl. Further, on kinases [4], the “% Ctrl, EGFR(L858R, T790M)” value came out at 93 % Ctrl. For the same molecule, the “% Ctrl, FLT1” value on kinases [5] came out at 85 % Ctrl. Further, the “% Ctrl, FLT3(D835Y)” value on kinases [6] was found to be 13 % Ctrl. Moreover, the “% Ctrl, RET(V804M)” value at kinases [7] was found to be 77 % Ctrl. Further, on kinases [8], the “% Ctrl, KIT(V559D, T670I)” value is listed as 6.3 % Ctrl.

(Values after patent US20230257396A1, “MACROCYCLES AND THEIR USE” (BLOSSOMHILL THERAPEUTICS, INC., priority 2020, published 2023).)
